Where “and” joins values, the source holds several entries; their conditions need not be identical. Identical values can stand only once.
Experiments:
Type in all cases: cell-based
[1] = molecular target: T1, human muscarinic acetylcholine M1 receptor (M1R) (Homo sapiens, UniProt P11229); assay: Ca2+ mobilization counter-screen in M1R-CHOk1 cells; conditions: individual replicates (Supplementary Figure 5)
T1 sequence (P11229 1-460): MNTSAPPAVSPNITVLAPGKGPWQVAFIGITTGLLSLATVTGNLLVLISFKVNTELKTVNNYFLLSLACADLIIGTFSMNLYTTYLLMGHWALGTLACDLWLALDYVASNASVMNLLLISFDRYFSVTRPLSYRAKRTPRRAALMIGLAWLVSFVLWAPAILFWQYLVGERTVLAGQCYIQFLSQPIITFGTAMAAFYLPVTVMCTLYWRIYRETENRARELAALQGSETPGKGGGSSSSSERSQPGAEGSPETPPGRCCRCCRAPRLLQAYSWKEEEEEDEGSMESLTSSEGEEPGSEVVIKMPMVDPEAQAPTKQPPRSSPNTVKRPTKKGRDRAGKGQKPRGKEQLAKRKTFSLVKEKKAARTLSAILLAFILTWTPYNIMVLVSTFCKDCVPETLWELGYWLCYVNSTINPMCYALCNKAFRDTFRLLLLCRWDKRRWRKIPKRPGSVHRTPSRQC
In short: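 M1R-CHOk1 cells seeded 20–24 h, loaded with 2 µM Fluo-4 AM (2.5 mM probenecid, 0.01% Pluronic F-68) for 1 h at 37 °C in HBSS/20 mM HEPES pH 7.4. Compounds added after baseline (≤0.3% DMSO); calcium fluorescence read at 37 °C, ex 485/em 525 nm.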

GPR139 [2] = molecular target: T2, GPR139 (Homo sapiens, UniProt Q6DWJ6); assay: Ca2+ mobilization assay, agonist mode, stable GPR139-CHOk1 cell line; conditions: for EC50 / Emax: Supplementary Table 2, mean ± SEM; for EC50: read-out: pEC50 Ca2+ (converted); for Emax: normalized to Lundbeck Cmp 1a, read-out: Emax (%) Ca2+
T2 sequence (Q6DWJ6 1-353): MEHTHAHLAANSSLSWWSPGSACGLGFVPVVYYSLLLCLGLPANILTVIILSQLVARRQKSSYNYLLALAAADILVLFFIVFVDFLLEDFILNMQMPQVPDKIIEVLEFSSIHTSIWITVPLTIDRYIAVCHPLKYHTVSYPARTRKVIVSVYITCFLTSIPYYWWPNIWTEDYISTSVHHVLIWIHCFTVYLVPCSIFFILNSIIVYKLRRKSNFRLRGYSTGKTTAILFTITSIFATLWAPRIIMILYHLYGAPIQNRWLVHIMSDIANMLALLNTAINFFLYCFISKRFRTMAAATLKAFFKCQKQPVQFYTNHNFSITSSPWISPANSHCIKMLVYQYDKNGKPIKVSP
In short: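 Agonist activity of compounds is assessed in stably transfected CHO-K1 cells using the calcium dye Fluo-4 at 37 °C in HEPES-buffered HBSS (pH 7.4). Efficacy is expressed relative to the reference agonist Lundbeck Cmp 1a, set as 100%.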

GPR139 [3] = molecular target: T2, GPR139; assay: Ca2+ mobilization assay, antagonist mode (EC80 800 nM Lundbeck Cmp 1a after 20 min preincubation), GPR139-CHOk1; conditions: individual replicates (Supplementary Figure 4)
In short: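 Fluo-4-loaded GPR139-CHOk1 cells in HEPES-buffered HBSS (pH 7.4, 2.5 mM probenecid) given test compounds at 10 µM, then after 20 min challenged with 800 nM Lundbeck Cmp 1a (EC80). Calcium fluorescence read at 37 °C, 485/525 nm.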

[4] = Agonist mode, individual replicates (Supplementary Figure 4)
[5] = log [Compound] M = -4.5, individual replicate columns
[6] = log [Compound] M = -5.0, individual replicate columns
[7] = log [Compound] M = -5.5, individual replicate columns
[8] = log [Compound] M = -6.0, individual replicate columns
[9] = log [Compound] M = -6.5, individual replicate columns
[10] = log [Compound] M = -7.0, individual replicate columns
[11] = log [Compound] M = -7.5, individual replicate columns
[12] = log [Compound] M = -8.0, individual replicate columns
[13] = log [Compound] M = -8.5, individual replicate columns
[14] = log [Compound] M = -9.0, individual replicate columns

EC50 (GPR139 [2]) | Emax (GPR139 [2]) | fold decrease in potency relative to a similar phenyl substituted compound (1.3) (GPR139 [2]; Ca2+ mobilization EC50) | SMILES | Ca2+ signal (% of Carbachol) [1] | Ca2+ signal (% of Cmp 1a) (GPR139 [2]; [4]) | Ca2+ signal (% of Cmp 1a) (GPR139 [2]; [5]) | Ca2+ signal (% of Cmp 1a) (GPR139 [2]; [6]) | Ca2+ signal (% of Cmp 1a) (GPR139 [2]; [7]) | Ca2+ signal (% of Cmp 1a) (GPR139 [2]; [8]) | Ca2+ signal (% of Cmp 1a) (GPR139 [2]; [9]) | Ca2+ signal (% of Cmp 1a) (GPR139 [2]; [10]) | Ca2+ signal (% of Cmp 1a) (GPR139 [2]; [11]) | Ca2+ signal (% of Cmp 1a) (GPR139 [2]; [12]) | Ca2+ signal (% of Cmp 1a) (GPR139 [2]; [13]) | Ca2+ signal (% of Cmp 1a) (GPR139 [2]; [14]) | Ca2+ signal (% of Cmp 1a) (GPR139 [3])
1.58 µM | 95 ± 3% |  | Cc1cc(-c2nc(CC(=O)NC(C)c3ccccc3)no2)no1 (stereo not shown) [Compound 1.23, CC(C1=CC=CC=C1)NC(CC2=NOC(C3=NOC(C)=C3)=N2)=O] | -3 % of Carbachol and 4.36 % of Carbachol and 7 % of Carbachol | 72 % of Cmp 1a and 57 % of Cmp 1a and 85 % of Cmp 1a | 95 % of Cmp 1a and 102 % of Cmp 1a and 98 % of Cmp 1a and 93 % of Cmp 1a | 96 % of Cmp 1a and 81 % of Cmp 1a and 85 % of Cmp 1a and 77 % of Cmp 1a | 80 % of Cmp 1a and 55 % of Cmp 1a and 48 % of Cmp 1a and 70 % of Cmp 1a | 56 % of Cmp 1a and 30 % of Cmp 1a and 19 % of Cmp 1a and 38 % of Cmp 1a | 38 % of Cmp 1a and 9 % of Cmp 1a and -1 % of Cmp 1a and 11 % of Cmp 1a | 18 % of Cmp 1a and 5.7 % of Cmp 1a and 1.07 % of Cmp 1a and 6 % of Cmp 1a | 12 % of Cmp 1a (2×) and 15 % of Cmp 1a and 0.388 % of Cmp 1a | -3 % of Cmp 1a and 11 % of Cmp 1a and 10 % of Cmp 1a and 0.199 % of Cmp 1a | -4.71 % of Cmp 1a and 7 % of Cmp 1a and 14 % of Cmp 1a and -1.47 % of Cmp 1a | 4 % of Cmp 1a and 6.41 % of Cmp 1a and 7 % of Cmp 1a and -2.26 % of Cmp 1a | 15 % of Cmp 1a and 20 % of Cmp 1a and 10 % of Cmp 1a
1.58 µM | 91 ± 4% | 4- to 16 fold | Cc1cncc(-c2nc(CC(=O)NC(C)c3ccccc3)no2)c1 (stereo not shown) [Compound 1.24, CC(C1=CC=CC=C1)NC(CC2=NOC(C3=CC(C)=CN=C3)=N2)=O] | -0.598 % of Carbachol and 5 % of Carbachol and 4.73 % of Carbachol | 83 % of Cmp 1a and 52 % of Cmp 1a and 78 % of Cmp 1a | 103 % of Cmp 1a and 95 % of Cmp 1a and 70 % of Cmp 1a and 88 % of Cmp 1a and 90 % of Cmp 1a | 68 % of Cmp 1a and 86 % of Cmp 1a and 73 % of Cmp 1a and 72 % of Cmp 1a and 97 % of Cmp 1a | 50 % of Cmp 1a and 66 % of Cmp 1a and 58 % of Cmp 1a and 47 % of Cmp 1a and 97 % of Cmp 1a | 24 % of Cmp 1a and 41 % of Cmp 1a and 39 % of Cmp 1a and 38 % of Cmp 1a and 62 % of Cmp 1a | 1.31 % of Cmp 1a and 19 % of Cmp 1a and 31 % of Cmp 1a and 8.44 % of Cmp 1a and 34 % of Cmp 1a | 2.29 % of Cmp 1a and 0.399 % of Cmp 1a and 4 % of Cmp 1a and 2 % of Cmp 1a and 17 % of Cmp 1a | -0.0494 % of Cmp 1a and 2.8 % of Cmp 1a and -5.43 % of Cmp 1a and 8 % of Cmp 1a and 5.52 % of Cmp 1a | -0.83 % of Cmp 1a and 7.38 % of Cmp 1a and -0.358 % of Cmp 1a and 15 % of Cmp 1a and 4 % of Cmp 1a | 3.55 % of Cmp 1a and 3 % of Cmp 1a and -1.51 % of Cmp 1a and 6 % of Cmp 1a and 3.35 % of Cmp 1a | 2 % of Cmp 1a and 1.41 % of Cmp 1a and 6 % of Cmp 1a and 4 % of Cmp 1a and 3 % of Cmp 1a | 5.33 % of Cmp 1a and 17 % of Cmp 1a and -8 % of Cmp 1a
